Consider 18 molecules from ChEMBL document CHEMBL5550096, “Casitas b cell lymphoma‑B (Cbl-b): A new therapeutic avenue for small-molecule immunotherapy” (Bioorg Med Chem, 2024).

Where a SMILES comes first, the peptide text is derived from it. [ ]: non-standard residue; d: D form. The star is where a group is joined. pY = N[C@@H](Cc1ccc(OP(=O)(O)O)cc1)C(=O)O; Myristoyl = CCCCCCCCCCCCCC(=O)*

For data set [1], the target named is T1, E3 ubiquitin-protein ligase CBL-B (Homo sapiens, UniProt Q13191). The data set can be described thus: Inhibition of Cbl-b (unknown origin) ubiquitination by TR-FRET assay. (TR-FRET usually uses a lanthanide donor and a delayed reading to cut background.)
Data set [2] deals with T1, E3 ubiquitin-protein ligase CBL-B. Briefly: Inhibition of Cbl-b (unknown origin) by TR-FRET assay.
Data set [3] has the same target.
Description: Binding affinity to CBl-b (unknown origin) assessed as dissociation constant by Surface plasmon resonance
A short description of data set [4]: Intrinsic clearance in mouse liver microsomes by HPLC-MS/MS analysis.
A short description of data set [5]: Half life in rat plasma. It counts as ADME, cell-free.
The target of data set [6] is T1, E3 ubiquitin-protein ligase CBL-B. Briefly: Inhibition of recombinant Cbl-b (unknown origin) ubiquitination incubated for 1 hr by TR-FRET assay.
Data set [7] has the same target. The data set can be described thus: Inhibition of Cbl-b (unknown origin).
Data set [8] has the same target. Briefly: Inhibition of biotinylated recombinant Cbl-b (36 to 427 residues)(unknown origin) expressed in Escherichia coli BL21(DE3) measured for 1 hr by TR-FRET assay.
Data set [9] shares this target. Briefly: Inhibition of Cbl-b (unknown origin) by SPR assay. A general note: In SPR one partner is held on a chip, and binding of the other changes the refractive index at the surface.
The target is the same in data set [10]. The data set can be described thus: Inhibition of Cbl-b (unknown origin) by HTRF assay.
Data set [11] shares this target. Briefly: Inhibition of N-terminal His-tagged human Cbl-b (40 to 426 residues) expressed in Escherichia coli by measured for 90 mins by HTRF method.

T1 sequence (Q13191 whole entry): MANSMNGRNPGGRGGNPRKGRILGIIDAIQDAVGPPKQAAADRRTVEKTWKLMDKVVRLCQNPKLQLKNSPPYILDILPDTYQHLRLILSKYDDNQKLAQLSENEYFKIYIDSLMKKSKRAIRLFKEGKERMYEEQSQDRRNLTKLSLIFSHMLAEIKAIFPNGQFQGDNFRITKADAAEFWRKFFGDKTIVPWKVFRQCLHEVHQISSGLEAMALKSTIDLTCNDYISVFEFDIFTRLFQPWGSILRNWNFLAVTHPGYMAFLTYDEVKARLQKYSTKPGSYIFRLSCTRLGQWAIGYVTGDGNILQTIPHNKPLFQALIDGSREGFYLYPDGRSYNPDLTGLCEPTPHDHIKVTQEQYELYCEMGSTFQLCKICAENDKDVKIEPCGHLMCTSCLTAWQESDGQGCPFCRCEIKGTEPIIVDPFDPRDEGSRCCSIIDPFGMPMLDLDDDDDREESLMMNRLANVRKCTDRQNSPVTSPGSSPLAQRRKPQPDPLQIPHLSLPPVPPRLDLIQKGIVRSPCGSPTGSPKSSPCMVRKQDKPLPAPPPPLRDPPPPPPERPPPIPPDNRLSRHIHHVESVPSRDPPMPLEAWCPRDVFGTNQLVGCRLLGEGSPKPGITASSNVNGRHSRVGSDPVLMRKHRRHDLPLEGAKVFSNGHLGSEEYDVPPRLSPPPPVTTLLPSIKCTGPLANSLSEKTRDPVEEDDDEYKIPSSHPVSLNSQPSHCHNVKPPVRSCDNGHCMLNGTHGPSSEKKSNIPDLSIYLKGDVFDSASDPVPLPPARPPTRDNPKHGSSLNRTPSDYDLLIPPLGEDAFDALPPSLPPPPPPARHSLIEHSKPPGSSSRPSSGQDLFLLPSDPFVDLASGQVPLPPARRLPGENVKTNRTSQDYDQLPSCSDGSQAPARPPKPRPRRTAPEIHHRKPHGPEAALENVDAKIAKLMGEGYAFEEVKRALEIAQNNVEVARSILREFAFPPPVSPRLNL

As for `Cc1cc(C(=O)Nc2cccc(C3(Cc4nncn4C)COC3)c2)nc(C2CC2)n1`, the values for the half-inhibitory concentration (IC50) in [1] and in data set [2] were 21 nM and 20 nM, respectively. Further, in [3], binding was characterised by a dissociation constant (Kd) of 20 nM.
For the molecule `C[C@H](Sc1nncn1C)c1cccc(NC(=O)c2ccnc(C3CC3)n2)c1`, the CLint scaled (in general, the rate of metabolic loss divided by the concentration) in data set [4] turned out to be 500 mL/min/kg. For the same molecule, the half-life (in general, how long it takes for the measured level to halve) in data set [5] was determined as 2.33 h.
For `C[C@H]1CCCN(Cc2cc3c(c(C(F)(F)F)c2)CN(c2cccc([C@]4(c5nncn5C)C[C@@H](C)C4)c2)C3=O)C1`, the IC50 in data set [6] and in data set [1] was below 5 nM throughout. Also, in data set [3], the affinity, expressed as Kd, was 8 nM.
With `Cn1cnnc1C(F)(F)[C@](C)(F)c1cccc(NC(=O)N2CC3(CNC3)Oc3cccnc32)c1`, the IC50 in data set [7] and in [8] was below 100 nM each time.
In the case of `COCC1(NCc2cc3c(c(C(F)(F)F)c2)CN(c2cccc([C@]4(c5nncn5C)C[C@H](OC)C4)c2)C3=O)CC1`, the midpoint of inhibition in [9], the IC50, lay at 4 nM. Also, binding in data set [3] was characterised by a dissociation constant (Kd) of 4 nM.
For `C[C@H](Cc1nncn1C)c1cccc(-c2n[nH]c3c(CN4CC[C@H](F)C4)cc(C(F)(F)F)nc23)c1`, the IC50 in [7] and in data set [8] was below 100 nM each time.
With `Cn1cnnc1-c1cc(C#N)ccc1-c1cc(C2CC2)nc(N2Cc3c(cc(CNCC4(F)CCC4)cc3C(F)(F)F)C2=O)c1`, the results for the IC50 in [9] and in [10] were 200 nM and below 200 nM, respectively.
`Cc1cc(CNC2(C)CCC2)cc2c(=O)c(-c3cccc([C@]4(c5nncn5C)C[C@@H](C)C4)c3)coc12`: the IC50 – broadly, the point on the concentration scale where inhibition reaches its midpoint – was 10 nM in data set [7] and 13 nM in data set [11].
As for `Cn1cnnc1[C@]1(c2cccc(NC(=O)c3cc(CN4CCC[C@H](C(F)F)C4)cn4ccnc34)c2)C[C@H](CC#N)C1`, the IC50 in data set [7] amounted to 5 nM; in data set [11], 1 nM.
On the same counts, the results for `CC(c1cc(C(=O)Nc2cccc([C@]3(c4nncn4C)C[C@@H](CC#N)C3)c2)nc2cc[nH]c12)N1CCC[C@H](C)C1` (stereo partly specified) are 11000 nM and 4 nM.
As to `C[C@H]1CCCN(Cc2cc(C(F)(F)F)c3[nH]c(-c4cccc([C@]5(c6nncn6C)C[C@@H](C)C5)c4)nc3c2)C1`, the IC50 in data set [7] and in [8] was below 200 nM in each case.
For the molecule `Cn1cnnc1[C@]1(c2cccc(-n3cc4c(C(F)(F)F)cc(CN5CCC6(CC6)C5)cn4c3=O)c2)C[C@H](C)C1`, the IC50 in [6], in data set [7] and in data set [8] was below 100 nM throughout.
As to `Cn1cnnc1[C@]1(c2cccc(-c3cnc4c(C(F)(F)F)cc(CN5CC6CC(C)(C6)C5)cn4c3=O)c2)C[C@H](C)C1`, the IC50 in data set [7] amounted to 20 nM; in data set [11] it was 25 nM.
Regarding `Cn1cnnc1[C@]1(c2cccc(N3C(=O)c4cc(CNC5(C)CCC5)cc5cccc3c45)c2)C[C@H](C)C1`, the IC50 in data set [9] and in data set [10] was 20 nM each time.
Take `CO[C@@]1(C(=O)N/C=C/c2ccc(O)cc2)O[C@](O)(C(=O)N/C=C/c2ccc(O)cc2)[C@@H](c2ccc(O)c(O)c2)[C@@H]1c1ccc(O)c(O)c1`: the IC50 in data set [7] stood at 11000 nM.
On the same count and under the same terms, under `O=C(N/C=C/c1ccc(O)cc1)c1c(-c2ccc(O)c(O)c2)c(-c2ccc(O)c(O)c2)c(C(=O)N/C=C/c2ccc(O)cc2)n1CCc1ccc(O)cc1` stands 6500 nM.
Consider `CC(C)[C@H]1CN(C)CCN1Cc1cc(C(=O)Nc2cccc(C3([C@@H](F)c4nncn4C)CC(F)(F)C3)c2)nc(C2CC2)c1`, for which the IC50 in [1] and in data set [10] was 7 nM each time.
Consider `CCCCCCCCCCCCCC(=O)N[C@@H](CC(=O)O)C(=O)NCC(=O)N[C@@H](Cc1ccc(OP(=O)(O)O)cc1)C(=O)N[C@@H](CCSC)C(=O)N1CCC[C@H]1C(=O)O` (Myristoyl-DG[pY]MP-OH), for which the half-inhibitory concentration (IC50) in [6] was found to be 30000 nM.
